The text below walks through data of patent publication US11066436B2, “5′-phosphorothiolate mRNA 5′-end (cap) analogs, mRNA comprising the same, method of obtaining and uses thereof” (Uniwersytet Warszawski, priority 2016, dated 2021).

“Also recorded” adds a separate entry of the source.

In assay [1] the target is T1, hDcpS enzyme (Homo sapiens, UniProt Q96C86).
T1 construct: made in house
T1 sequence (Q96C86 1-337): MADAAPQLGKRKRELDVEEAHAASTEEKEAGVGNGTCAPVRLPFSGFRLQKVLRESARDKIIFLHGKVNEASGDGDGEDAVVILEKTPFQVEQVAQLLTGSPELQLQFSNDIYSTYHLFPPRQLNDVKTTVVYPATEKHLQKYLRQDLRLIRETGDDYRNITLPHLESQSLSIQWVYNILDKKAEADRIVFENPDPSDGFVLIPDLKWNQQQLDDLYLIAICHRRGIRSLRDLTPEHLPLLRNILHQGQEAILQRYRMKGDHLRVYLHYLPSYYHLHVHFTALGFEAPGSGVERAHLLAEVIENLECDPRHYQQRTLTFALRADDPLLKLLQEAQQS
The experiment in a line: IC50 determination for selected inhibitors of DcpS (fluorescence, m^7GMPF probe). It is filed as biochemical. The settings on record: for IC50: m^7GMPF 60 μM, hDcpS 50 nM, tested compound 0-50 μM. How it is done: Test 2. IC50 Determination for Selected Inhibitors
The buffer in this test and in the test 1 is the same. Ten mixture reactions were prepared at the same time and each of them contained a m^7GMPF (60 μM), hDcpS enzyme (50 nM) and the tested compound in concentration range between 0-50 μM in 200 μl of buffer. After appropriate time, when 30% of substrate were converted into product without inhibitor, the reaction was stopped by mixing with 100 μl of ACN. Samples of 25 μl were taken for analysis, followed by mixing with 90 μl of TBDS-fluorescein solution of concentration 2.5 μM in DMSO and incubated for 60 min. Next, 100 μl of 200 mM HEPES buffer pH=7.0 was added to the samples and the fluorescence was measured as described in general information. Based on the results, dependence of inhibitor concentration vs. fluorescence were plotted and the IC50 values were determined by fitting theoretical curve to data.

For assay [2], the target named is T2, human DcpS enzyme (hDcpS) (Homo sapiens, UniProt Q96C86).
T2 construct: made in house
T2 sequence (Q96C86 1-337): T1 sequence (Q96C86 1-337)
Kind of assay: Susceptibility of cap analogs to degradation by DcpS enzyme (RP-HPLC). It counts as biochemical. The settings on record: for DcpS susceptibility: cap analog 20 μM, hDcpS 100 nM, RP-HPLC; for hydrolysis by hDcpS: tested as substrates of hDcpS, RP HPLC. The procedure:
Test 1. The Susceptibility Study of Analogs to Degradation by DcpS Enzyme.
The aim of the test was to check if new 5′-thiophosphate cap analogs are hydrolyzed by human DcpS enzyme (hDcpS). Recombinant human protein encoding DcpS enzyme was expressed as described previously (Kowalska, Lewdorowicz et al. 2008). The susceptibility of new analogs to hDcpS hydrolysis is tested in 50 mM Tris-HCl buffer containing 200 mM KCl and 0.5 mM EDTA. Reaction mixture includes the tested cap analog (20 μM) and hDcpS enzyme (100 nM) in 400 μl of buffer. At the appropriate intervals 100 μl sample is collected from the reaction mixture. Sample is incubated at 98° C. for 2.5 min, and then cooled to 0° C. and analyzed on RP-HPLC under conditions described in general informations. In tests also commercially available inhibitor of DcpS was tested, the compound RG3039 (no. 000) (https://www.mda.org/quest/fda-approves-phase-1-clinical-trial-rg3039-sma), GppSG (no. 19), GpppSG (no. 20), as well m^7GpppG (no. 0) and m^7Gpp (no. 00) as controls. Exemplary results obtained are shown on FIG. 5 and Table 5.

As for `Nc1nc2c(ncn2[C@@H]2O[C@H](COP(=O)(O)OP(=O)(O)SC[C@H]3O[C@@H](n4cnc5c(=O)[nH]c(N)nc54)[C@H](O)[C@@H]3O)[C@@H](O)[C@H]2O)c(=O)[nH]1` [compound 19], the IC50 (as a rule, the concentration that inhibits the measured activity by half) in assay [1] was > 100 µM. The DcpS susceptibility entry in assay [2] is reported as “hydrolyzable”.
Compound `C[n+]1cn([C@@H]2O[C@H](CSP(=O)(O)OP(=O)([S-])OP(=O)(O)OC[C@H]3O[C@@H](n4cnc5c(=O)[nH]c(N)nc54)C(O)C3O)C(O)C2O)c2nc(N)nc(O)c21` (some centres unmarked) [compound 31] gave an IC50 in assay [1] of 0.17 ± 0.02 µM. In assay [2], the DcpS susceptibility result is listed as “resistant/inhibitor” and the “hydrolysis by hDcpS” value is recorded as “stability in the presence of DcpS enzyme”.
As to `C[n+]1cn([C@@H]2O[C@H](COP(=O)(O)OP(=O)([O-])SC[C@H]3O[C@@H](n4cnc5c(=O)[nH]c(N)nc54)C(O)C3O)C(O)C2O)c2nc(N)nc(O)c21` (stereo in doubt) [compound 21], in assay [2], the DcpS susceptibility result is “hydrolyzable” and the “hydrolysis by hDcpS” value was “hydrolyzed”.
Consider `COC1C(O)[C@@H](COP(=O)(O)OP(=O)(O)OP(=O)([O-])SC[C@H]2O[C@@H](n3cnc4c(=O)[nH]c(N)nc43)C(O)C2O)O[C@H]1n1c[n+](C)c2c(O)nc(N)nc21` (some centres unmarked) [compound 38], for which inhibition in assay [1] was half-maximal at 72 ± 17 µM (IC50). In addition, in assay [2], the DcpS susceptibility result was “hydrolyzable” and the “hydrolysis by hDcpS” value is recorded as “hydrolyzed”.
The like results for `COC1C(O)[C@@H](CSP(=O)([O-])OP(=O)(O)OP(=O)(O)OC[C@H]2O[C@@H](n3cnc4c(=O)[nH]c(N)nc43)C(O)C2O)O[C@H]1n1c[n+](C)c2c(O)nc(N)nc21` (some centres unmarked) [compound 26] were, in that order, 12.6 ± 5.22 µM, “resistant/inhibitor” and “stability in the presence of DcpS enzyme”.
With `C[n+]1cn([C@@H]2O[C@H](COP(=O)(O)OP(=O)(O)OP(=O)([O-])SC[C@H]3O[C@@H](n4cnc5c(=O)[nH]c(N)nc54)C(O)C3O)C(O)C2O)c2nc(N)nc(O)c21` (some centres unmarked) [compound 22], in assay [2], the DcpS susceptibility result is “hydrolyzable” and the “hydrolysis by hDcpS” value was “hydrolyzed”.
`C[n+]1cn([C@@H]2O[C@H](COP(=O)(O)CP(=O)(O)OP(=O)([O-])SC[C@H]3O[C@@H](n4cnc5c(=O)[nH]c(N)nc54)C(O)C3O)C(O)C2O)c2nc(N)nc(O)c21` (some centres unmarked) [compound 37]: 5.67 ± 1.01 µM corresponded to half-maximal inhibition in assay [1] (IC50). In addition, in assay [2], the DcpS susceptibility result was “resistant/inhibitor” and the “hydrolysis by hDcpS” value is given as “resistant to hydrolysis; also recorded: stability in the presence of DcpS enzyme”.
For the compound `C[n+]1cn([C@@H]2O[C@H](CSP(=O)(O)OP(=O)([S-])OP(=O)(O)SC[C@H]3O[C@@H](n4cnc5c(=O)[nH]c(N)nc54)C(O)C3O)C(O)C2O)c2nc(N)nc(O)c21` (single isomer, unassigned) [compound 34], the “inhibition of hDcpS” value in assay [1] (fluorescence method and fluorogenic probe) is listed as “best inhibitory properties”. For the same compound, in assay [1], the IC50 worked out at 0.051 ± 0.008 µM. In addition, in assay [2], the DcpS susceptibility result is reported as “resistant/inhibitor” and the “hydrolysis by hDcpS” value is reported as “stability in the presence of DcpS enzyme”.
Compound `C[n+]1cn([C@@H]2O[C@H](CSP(=O)([O-])OP(=O)(O)OC[C@H]3O[C@@H](n4cnc5c(=O)[nH]c(N)nc54)C(O)C3O)C(O)C2O)c2nc(N)nc(O)c21` (stereo in doubt) [compound 23] came in with a 50% inhibitory concentration (IC50) in assay [1] of 2.81 ± 0.51 µM. For the same compound, in assay [2], the DcpS susceptibility result is given as “resistant/inhibitor” and the “hydrolysis by hDcpS” value is given as “stability in the presence of DcpS enzyme”.
Regarding `C[n+]1cn([C@@H]2O[C@H](COP(=O)(O)OP(=O)([S-])OP(=O)(O)SC[C@H]3O[C@@H](n4cnc5c(=O)[nH]c(N)nc54)C(O)C3O)C(O)C2O)c2nc(N)nc(O)c21` (some centres unmarked) [compound 36], in assay [2], the DcpS susceptibility entry is on record as “hydrolyzable” and the “hydrolysis by hDcpS” value is “hydrolyzed”.
With `C[n+]1cn([C@@H]2O[C@H](COP(=O)(O)OP(=O)([S-])OP(=O)(O)SC[C@H]3O[C@@H](n4cnc5c(=O)[nH]c(N)nc54)C(O)C3O)C(O)C2O)c2nc(N)nc(O)c21` (some centres unmarked) [compound 35], in assay [2], the DcpS susceptibility entry is given as “hydrolyzable” and the “hydrolysis by hDcpS” value is “hydrolyzed”.
